From publication PMC6718548, “Tau pathology reduction with SM07883, a novel, potent, and selective oral DYRK1A inhibitor: A potential therapeutic for Alzheimer's disease” (Aging Cell, 2019) come the findings set out here.

SMILES strings stand for the structures. Like-named read-outs stand apart in the source and are kept apart here.

For experiment [1], the system named is phosphorylated tau at Thr212 in HEK293T cells. Nature of the experiment: pTau Thr212 sandwich ELISA in double-transfected HEK293T cells. Format: cell-based, human. As to conditions: HEK293T co-transfected with DYRK1A and MAPT, overnight treatment, single lot, read-out: Cell assay EC50 pTau at Thr212. The source says:
For the generation of the DYRK1A- and MAPT-overexpressing cells, HEK293T cells were transiently transfected with DYRK1A and MAPT genes. Specifically, expression vectors pCMV6-XL4 and pCMV6-Entry expressing DYRK1A and MAPT, alongside an empty vector control (pCI, OriGene, Catalog #SC314641 and RC216166, respectively; Promega, Catalog #E1731) and the material was amplified and purified using a custom MaxiPrep service (GENEWIZ, South Plainfield, NJ).
(§1) For ELISA assays, native SH-SY5Y cells, or transiently double-transfected HEK293T cells were dissociated by treatment with trypsin-EDTA and seeded in 96-well flat-bottom cell culturing plate before administration of 3-fold serial dilution of SM07883 overnight.
(§2) Following compound treatment, cells were washed and lysed with 1x RIPA buffer containing phosphatase and protease inhibitors transferred to 96-well V-bottom collection plates for centrifugation and removal of insoluble material.
The pTau Thr212 ELISA 96-well flat-bottom plates, were coated with anti-HT7 capture antibody (Catalog MN1000, Thermo Fisher, Waltham, […]) diluted 1:300 in 1X PBS at 4°C. After overnight incubation, coated plates were washed with 1× PBS containing 0.05% Tween-20 and blocked for 1hr 2% BSA (A7030-50G, Sigma-Aldrich, St. Louis, MO), then washed prior to sample loading.
For the pTau Thr212 sandwich ELISA, cell lysates were directly transferred to the anti-HT7 capture, antibody-coated, and BSA-blocked ELISA plates for 2hrs. Supernatant was then removed, and plates were washed with 1× PBS-0.05% Tween-20, followed by addition of 100 µL per well anti-phosphorylated tau Thr212 antibody (Catalog 44-740G, Thermo Fisher) diluted 1:200 in 1× PBS for 2hrs. Plates were washed and probed with an anti-rabbit/HRP conjugate (Cell Signaling Technology, 7074S) for 1hr then washed before a TMB substrate solution (Catalog N301, Thermo Fisher) was added. When a deep blue color was observed, 100 µL per well of stop solution (Catalog N600, Thermo Fisher) was added.
(§3) Colorimetric detection of pT212Tau or pS396Tau signal was read at 450 nm using the Cytation 3 Cell Imaging Multi-Mode Reader (BioTek, Winooski, VT). The signal was used to plot, draw the curve fitting, and determine the EC50 value for SM07883 in Prism 7 (GraphPad, La Jolla, CA).

The subject of experiment [2] is phosphorylated tau at Ser396 in SH-SY5Y cells. Nature of the experiment: pSer396Tau ELISA in SH-SY5Y neuroblastoma cells. As to conditions: overnight (16 hr) treatment, single lot, read-out: Cell assay EC50 pTau at Ser396. The experiment is classed as cell-based, human.
Excerpt: as §1, §2, §3

Experiment [3] deals with T1, DYRK1a (Homo sapiens, UniProt Q13627).
T1 construct: purchased Thermo Fisher Scientific
Nature of the experiment: DYRK1A kinase assay (Z-Lyte / SelectScreen IC50). Format: biochemical. To be noted: Suppl. Table 2 comparison with commercially available inhibitors.

For experiment [4], the target named is T2, GSK‐3β (Homo sapiens, UniProt P49841).
T2 construct: purchased Thermo Fisher SelectScreen service
T2 sequence (P49841 whole entry): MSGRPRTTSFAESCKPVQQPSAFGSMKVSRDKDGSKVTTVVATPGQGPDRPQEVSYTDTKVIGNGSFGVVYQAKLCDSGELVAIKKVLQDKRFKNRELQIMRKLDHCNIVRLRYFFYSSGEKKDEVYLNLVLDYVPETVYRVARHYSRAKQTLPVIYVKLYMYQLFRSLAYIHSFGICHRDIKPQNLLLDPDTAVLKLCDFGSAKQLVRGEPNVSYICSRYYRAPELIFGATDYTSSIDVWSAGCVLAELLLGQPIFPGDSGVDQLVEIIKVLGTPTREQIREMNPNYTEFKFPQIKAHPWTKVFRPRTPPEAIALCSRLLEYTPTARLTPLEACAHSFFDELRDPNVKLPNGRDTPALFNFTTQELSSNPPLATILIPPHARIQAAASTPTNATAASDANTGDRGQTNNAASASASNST
Nature of the experiment: Kinase IC50 (SelectScreen). The experiment is classed as biochemical. To be noted: Suppl. Table 2 comparison with commercially available inhibitors; read-out: Kinase IC50 GSK-3b.

Regarding `Cc1c[nH]c(-c2cnc(NCCNc3ccc(C#N)cn3)nc2-c2ccc(Cl)cc2Cl)n1` [CHIR-99021], the concentration for a half-maximal effect (EC50) in experiment [1] (Homo sapiens, HEK-293T) is greater than 10000 nM; in experiment [2] (Homo sapiens), 252 nM.
With `O=C(O)c1ccc2c(c1)nc(Nc1cccc(Cl)c1)c1ccncc12` [CX-4945], the half-maximal effective concentration (EC50) in experiment [1] (Homo sapiens, HEK-293T) stood at 428 nM; in experiment [2] (Homo sapiens) it was 5200 nM.
Take `Cc1ccc(C(=O)Nc2c[nH]nc2C(=O)NCCCOC(C)C)cn1` [Compound A, 6-Methyl-N-[3-[[3-(1-methylethoxy)propyl]carbamoyl]-1H-pyrazol-4-yl]pyridine-3-carboxamide]: the 50% effective concentration (EC50) in experiment [1] (Homo sapiens, HEK-293T) is greater than 10000 nM; in experiment [2] (Homo sapiens), 6 nM. Half-maximal inhibition in experiment [3] (IC50) was put at 761 nM.
For `O=C(O[C@@H]1Cc2c(O)cc(O)cc2O[C@@H]1c1cc(O)c(O)c(O)c1)c1cc(O)c(O)c(O)c1` [EGCG, Epigallocatechin gallate], the EC50 in experiment [1] and in experiment [2] was greater than 10000 nM in each case. For the same compound, the half-inhibitory concentration (IC50) in experiment [3] was 1400 nM; in experiment [4], greater than 10000 nM.
With `COC(=N)c1nc2ccc3ncnc(Nc4ccc(Cl)cc4Cl)c3c2s1` [EHT-5372], the results for the EC50 in experiment [1] and in experiment [2] were 3800 nM and 2500 nM, respectively. In addition, the figures for the IC50 in experiment [3] and in experiment [4] were 83 nM and greater than 10000 nM, respectively.
On to `COc1ccc2c(c1)[nH]c1c(C)nccc12` [Harmine], for which the EC50 in experiment [1] (Homo sapiens, HEK-293T) is 233 nM; in experiment [2] (Homo sapiens), greater than 10000 nM.
As for `CCN1/C(=C/C(C)=O)Sc2ccc(O)cc21` [INDY], the 50% effective concentration (EC50) in experiment [1] and in experiment [2] was greater than 10000 nM each time. In experiment [4], the IC50 was greater than 10000 nM.
As for `O=C1NC(Nc2ccccc2)=N/C1=C\c1ccc2c(c1)OCO2` [Leucettine L41], the EC50 in experiment [1] is 72 nM; in experiment [2], 1400 nM. Besides, the IC50 in experiment [4] was determined as 1100 nM.
Turning to `CCN1/C(=C/C(C)=O)Sc2ccc(OC)cc21` [TG003], the EC50 in experiment [1] and in experiment [2] was greater than 10000 nM each time. Also, in experiment [4], the IC50 was greater than 10000 nM.
Take `O=c1sn(-c2cccc3ccccc23)c(=O)n1Cc1ccccc1` [Tideglusib]: the EC50 in experiment [1] (Homo sapiens, HEK-293T) is greater than 10000 nM; in experiment [2] (Homo sapiens), greater than 10000 nM.
